Measured values: patent US10028931B2, “Synergistic compositions for treating microbial infections” (UNIVERSITY OF ROCHESTER, priority 2014, dated 2018)
Values after ≈ are worked out from the molar mass of the structure shown. Like-named read-outs stand apart in the source and are kept apart here.

Experiments:
[1] = test system: Staphylococcus aureus strain UAMS-1; assay: Antimicrobial susceptibility testing (MIC, broth microdilution); assay type: cell-based; conditions: S. aureus UAMS-1, Mueller Hinton broth, 37° C.
Description: The RNase P inhibitors described herein were tested for antimicrobial activity toward Staphylococcus aureus strain UAMS-1. Individual wells of a 96-well microtiter plate were inoculated with ˜1×10^5 colony-forming units (CFU) of the indicated organism, containing two-fold increasing concentrations (from 0 to 256 μg mL^−1) of the indicated antibiotic or putative RnpA inhibitor, and incubated at 37° C. for 18 hours in Mueller Hinton broth. The MIC was defined as the lowest concentration of antibiotic in which there was no visible bacterial growth in the wells. Minimum bactericidal concentration testing was performed by enumerating the bacterial cells in each of the wells containing treatments at and above the MIC.

[2] = molecular target: T1, S. aureus RNase P (RnpA+rnpB) (Staphylococcus aureus, UniProt P0A0H5); assay: RNase P activity assay (precursor tRNA processing); assay type: biochemical; conditions: ptRNATyr processing, gel densitometry; read-out: RNase P IC50
T1 sequence (P0A0H5 1-117): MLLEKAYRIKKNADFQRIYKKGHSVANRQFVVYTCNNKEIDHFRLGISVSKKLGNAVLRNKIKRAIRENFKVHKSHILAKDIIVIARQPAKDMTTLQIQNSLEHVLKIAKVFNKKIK
Description: The RNase P inhibitors described herein were tested for activity toward RNase P. S. aureus RNase P activity assays were performed in low salt buffer (50 mM Tris-HCl pH 8.0, 5 mM MgCl2) or in high salt buffer (50 mM Tris-HCl pH 8.0, 100 mM MgCl2, 800 mM NH4Cl). For all reactions, ptRNATyr, tRNATyr, or rnpB RNA species were first denatured by heating to 95° C. for 3 minutes, and then slowly cooling the mixtures to room temperature. RNase P was reconstituted by mixing an equal molar ratio of RnpB and RnpA for 15 min at 37° C. Precursor tRNA processing reactions (20 μL) were performed by mixing 1.25 pmol RNase P (RnpA+rnpB), RnpA, or rnpB with an equal volume of 2× low salt buffer or 2× high salt buffer and 10 pmol ptRNATyr. Mixtures were incubated for 15 min at 37° C. Reactions were stopped by adding 20 μL 2×RNA loading dye (95% formamide, 0.025% SDS, 0.025% bromophenol blue, 0.025% xylene cyanol FF, 0.5 mM EDTA), and 30 μL of each sample was electrophoresed in a 7 M urea/8% polyacrylamide gel and was then stained with ethidium bromide (0.5 μg/ml). Where indicated, reactions were repeated in the presence of the indicated amount of putative RnpA inhibitors or dimethyl sulfoxide (DMSO). A FluorChem 5500 imaging system was used to visualize the RNA, and the relative abundance of the mature tRNATyr band in the positive control (RNase P+DMSO) or in samples containing test compounds was measured using Image J densitometry software (NIH). The percent RNase P activity was then calculated using the following calculation: (test compound tRNATyr signal/positive control tRNATyr signal)*100.

RnpA = molecular target: T2, RnpA (Staphylococcus aureus, UniProt P0A0H5); assay: RnpA mRNA degradation activity assay; assay type: biochemical; conditions: RnpA mRNA degradation, gel densitometry; read-out: RnpA IC50
T2 sequence (P0A0H5 1-117): T1 sequence (P0A0H5 1-117)
Description: The RNase P inhibitors described herein were tested for activity toward RnpA mRNA degradation activity. Either 1 μg of total S. aureus RNA or 1 pmol of in vitro synthesized spa mRNA was incubated with 20 pmol RnpA at 37° C. for 15 to 30 min in a reaction buffer (50 mM Tris-HCl pH 8.0, 2 mM NaCl, 2 mM MgCl2) in the absence or presence of the indicated compound. Reactions were stopped by adding an equal volume of 2×RNA loading dye (95% formamide, 0.025% SDS, 0.025% bromophenol blue, 0.025% xylene cyanol FF, 0.5 mM EDTA), run on a denaturing 1.0% agarose-0.66 M formaldehyde gel and stained with ethidium bromide. RNA substrates and corresponding degradation products were visualized using a FluorChem 5500 system (Alpha Innotech; San Leandro, Calif.). The inhibitory effects of the test compounds were measured using Image J densitometry software (National Institutes of Health; Bethesda, Md.) to quantify the signal intensity of the RNA band(s) in the negative control (RNA alone), positive control (RnpA+RNA+DMSO), and experimental samples (RnpA+RNA+test compound). The percent enzyme inhibition of test compounds was calculated using the following equation: Percent inhibition=[(experimental signal-positive control)/(negative control signal-positive control signal)]*100.

[3] = Staphylococcus aureus, UAMS1, 18 h, read-out: MIC

Compound | MIC [1, 3] [µg/mL] | IC50 [2] [µM] | IC50 (RnpA) [µM] | MIC ([1]; 18 hours) [µg/mL]
COCCOC(=O)CCC(=O)NC(=S)NNC(=O)COc1ccc(C(C)C)cc1 [ST5528839] | > 128 | > 500 | – | –
CCc1ccc(OCc2ccc(C(=O)NNC(=S)NCC(C)C)o2)cc1 [ST5607293] | > 128 | > 500 | > 500 | –
O=C(NC(=S)NNC(=O)c1ccccc1O)c1ccco1 [MC-190069] | – | 470 | > 500 | 64 (≈ 210 µM)
CCC(C)c1ccc(OCC(=O)NNC(=S)NC(=O)c2ccc(-c3ccccc3)cc2)cc1 (stereo not drawn) [ST5525289] | 64 (≈ 139 µM) | > 500 | 40 | –
O=C(CNC(=O)C1CCCCC1)NNC(=S)NC(=O)c1ccco1 [ST5526682] | > 128 | 200 | > 500 | –
CCC(C)c1ccc(OCC(=O)NNC(=S)NC(=O)C2CCCCC2)cc1 (stereo not drawn) [ST5525281] | – | 125 | 275 | –
CCCCCCCC(=O)NC(=S)NNC(=O)COc1ccc(C(C)CC)cc1 (stereo not drawn) [ST5528863] | > 128 | 490 | > 500 | –
O=C(/C=C/c1ccccc1)NC(=S)NNC(=O)c1ccco1 [ST5254083] | 16 (≈ 50.7 µM) | 75 | 90 | –
Cc1ccc(C(=O)NNC(=S)NC(=O)c2ccco2)cc1 [ST5682777] | – | 70 | > 500 | 16 (≈ 52.7 µM)
O=C(NC(=S)NNC(=O)c1ccco1)c1cccnc1 [ST5254088] | > 128 | > 500 | – | –
O=C(NNC(=S)NC(=O)c1ccco1)c1cnccn1 [ST5641784] | 32 (≈ 110 µM) | > 500 | > 500 | –
O=C(NC(=S)NNC(=O)c1ccc(O)cc1O)c1ccco1 [ST5640720] | 16 (≈ 49.8 µM) | > 500 | > 500 | –
COc1ccc(OCC(=O)NNC(=S)NC(=O)c2ccc(Br)o2)cc1 [ST5523216] | 32 (≈ 74.7 µM) | 425 | > 500 | –
Cc1ccc(OCC(=O)NNC(=S)NC(=O)COc2ccccc2)cc1 [ST5521633] | 16 (≈ 42.8 µM) | 155 | – | –
CC(C)(C)c1ccc(C(=O)Nc2ccc(C(=O)NNC(=S)NC(=O)c3ccco3)cc2)cc1 [ST5524997] | 32 (≈ 68.9 µM) | 70 | 300 | –
Cc1ccccc1OCC(=O)NNC(=S)NC(=O)/C=C/c1ccco1 [ST5524973] | 32 (≈ 89 µM) | 80 | 220 | –

Further lines, results first:

MIC [1, 3] [µg/mL] | IC50 [2] [µM] | IC50 (RnpA) [µM] | MIC ([1]; 18 hours) [µg/mL] | Compound
> 128 | – | – | – | CC(C)c1ccc(CCNc2c(NCc3ccccn3)c(=O)c2=O)cc1 [MC-190086]
> 128 | – | – | – | CC(C)c1ccc(CCNc2c(NCc3ccco3)c(=O)c2=O)cc1 [MC-190083]
> 128 | > 500 | 70 | – | CC(C)CNC(=S)NNC(=O)c1ccc(COc2ccc(C(C)(C)C)cc2)o1 [ST5607017]
64 (≈ 177 µM) | > 500 | > 500 | – | CC(C)COc1ccc(C(=O)NNC(=S)NC(=O)c2ccco2)cc1 [ST5529685]
256 (≈ 726 µM) | – | 50 | – | CC(C)c1ccc(CCNc2c(NCCc3ccco3)c(=O)c2=O)cc1 [MC-190090]
128 (≈ 395 µM) | – | 25 | – | CC(C)c1ccc(CNc2c(NCc3ccco3)c(=O)c2=O)cc1 [MC-190091]
> 256 | 70 | > 500 | – | CC(C)c1ccc(OCC(=O)NNC(=O)c2cc3ccccc3n2C)cc1 [MC-190057]
> 128 | 145 | > 500 | – | CC(C)C(=O)Nc1ccc(C(=O)NNC(=S)NC(=O)c2ccco2)cc1 [ST5525955]
> 128 | – | – | – | CC(C)c1ccc(OCC(=O)NNC(=S)NC(=O)c2cnc3ccccc3c2)cc1 [MC-190082]
